According to patent US12564193B2, “Isoxazoline-substituted benzamide derivative, and preparation method therefor and use thereof” (SHANDONG UNITED PESTICIDE INDUSTRY CO., LTD., priority 2020, dated 2026):
Read-outs that look alike come from different tables or passages of the source.

How the values were obtained:
Assay type in all cases: in vivo
[1] = tested on: Frankliniella occidentalis; assay: Insecticidal activity, spray on pre-infested radish plants: Frankliniella occidentalis; settings: Frankliniella occidentalis, 144 h, read-out: fatality rate on Frankliniella occidentalis
Description: (§1) For determination of insecticidal activity, the test method was as follows: a test solution with a desired concentration was prepared by dissolving a test compound sample in a suitable solvent (the kind of solvent was such as acetone, methanol, DMSO, etc., and was selected according to its dissolving ability for the sample). The test cell was composed of a small open container with 12-15 day old radish plants inside. The plants were pre-infested by placing 30-40 pests located on one leaf cut from the cultivated plant on one leaf of the test plant (leaf cutting method). As the leaves dehydrated, the pests moved on the test plants. After the pre-infesting, the soil of the test cells was covered with a layer of sand.
The test method was as follows: the test was repeated for three times, and after spraying the formulated test compound, each test unit was allowed to dry for 1 hour, and then a black mesh cover was placed at the top. The test units were kept in a growth chamber at 25° C. and 70% relative humidity for 6 days. The mortality (fatality rate) of the insects was then visually assessed for each test unit, and the fatality rate was calculated as follows:
[formula] (1) Test Results for the Control of Frankliniella occidentalis by Exemplary Example Compounds

Plutella xylostella = assay: Insecticidal activity, spray on pre-infested radish plants: Plutella xylostella; settings: Plutella xylostella, 144 h, read-out: fatality rate on Plutella xylostella
Description: as §1
(§2) The test method was as follows: the test was repeated for three times, and after spraying the formulated test compound, each test unit was allowed to dry for 1 hour, and then a black mesh cover was placed at the top. The test units were kept in a growth chamber at 25° C. and 70% relative humidity for 6 days. The mortality (fatality rate) of the insects was then visually assessed for each test unit, and the fatality rate was calculated as follows: […]

Pieris rapae = assay: Insecticidal activity, spray on pre-infested radish plants: Pieris rapae; settings: 144 h, read-out: fatality rate on Pieris rapae
Description: as §1, §2

Mythimna separata = assay: Insecticidal activity, spray on pre-infested radish plants: Mythimna separata; settings: Mythimna separata, 144 h, read-out: fatality rate on Mythimna separata
Description: as §1, §2

Spodoptera litura = assay: Insecticidal activity, spray on pre-infested radish plants: Spodoptera litura; settings: 144 h, read-out: fatality rate on Spodoptera litura
Description: as §1, §2

Chilo suppressalis = assay: Insecticidal activity, spray on pre-infested radish plants: Chilo suppressalis; settings: Chilo suppressalis, 144 h, read-out: fatality rate on Chilo suppressalis
Description: as §1, §2

Cnaphalocrocis medinalis = assay: Insecticidal activity, spray on pre-infested radish plants: Cnaphalocrocis medinalis; settings: 144 h, read-out: fatality rate on Cnaphalocrocis medinalis
Description: as §1, §2

Tetranychus cinnabarinus = assay: Acaricidal activity, slide immersion of female adult mites: Tetranychus cinnabarinus; settings: read-out: fatality rate on Tetranychus cinnabarinus
Description: The test method was as follows: a test solution with a desired concentration was prepared by dissolving a test compound sample in a suitable solvent (the kind of solvent was such as acetone, methanol, DMSO, etc., and was selected according to its dissolving ability for the sample). A double-sided adhesive tape was cut into 2-3 cm long pieces, the pieces were attached to one end of a microscope slide, paper pieces on the adhesive tape were removed using tweezers, female adult mites which were consistent in size, bright in body color and lively in action were selected using a zero-size brush pen, the backs of the female adult mites were adhered to the double-sided adhesive tape (note: the adhesion should not cover mite feet, mite whiskers and mouthparts), with 4 rows of mites adhered to each piece and 10 heads of the mites adhered to each row.
One end of the glass slide with the mites was immersed into a drug liquid, with slightly shaking for 5 seconds, and then the slide was taken out. The excess drug liquid around the mite body and is surroundings is quickly sucked off using absorbent paper. The slide was placed in the biochemical incubator described above, and the results were checked by using binoculars after 24 hours. The mites were slightly touched by using a brush pen, the mites with immobility in feet were considered to be dead, and the fatality rate was calculated. The fatality rate was calculated as follows: […]

Cc1cc(C2=NOC(c3cc(Cl)c(F)c(Cl)c3)(C(F)(F)F)C2)ccc1C(=O)NCCc1ccc(Cl)nc1 (stereo not drawn) [Compound 15]
> 80%: pest or weed control at 1 ppm [1] | pest or weed control at 10 ppm [1] | pest or weed control at 25 ppm [1] | pest or weed control at 0.1 ppm (Plutella xylostella) | pest or weed control at 1 ppm (Plutella xylostella) | pest or weed control at 10 ppm (Plutella xylostella) | pest or weed control at 0.1 ppm (Pieris rapae) | pest or weed control at 1 ppm (Pieris rapae) | pest or weed control at 10 ppm (Pieris rapae) | pest or weed control at 0.1 ppm (Mythimna separata) | pest or weed control at 1 ppm (Mythimna separata) | pest or weed control at 10 ppm (Mythimna separata) | pest or weed control at 0.1 ppm (Spodoptera litura) | pest or weed control at 1 ppm (Spodoptera litura) | pest or weed control at 10 ppm (Spodoptera litura) | pest or weed control at 0.1 ppm (Chilo suppressalis) | pest or weed control at 1 ppm (Chilo suppressalis) | pest or weed control at 10 ppm (Chilo suppressalis) | pest or weed control at 0.1 ppm (Cnaphalocrocis medinalis) | pest or weed control at 1 ppm (Cnaphalocrocis medinalis) | pest or weed control at 10 ppm (Cnaphalocrocis medinalis) | pest or weed control at 1 ppm (Tetranychus cinnabarinus; 24 h) | pest or weed control at 10 ppm (Tetranychus cinnabarinus; 24 h) | pest or weed control at 25 ppm (Tetranychus cinnabarinus; 24 h)

Cc1cc(C2=NOC(c3cc(F)c(F)c(F)c3)(C(F)(F)F)C2)ccc1C(=O)NCc1cnc(Cl)cc1C(F)(F)F (stereo not drawn) [Compound 6]
> 80%: pest or weed control at 1 ppm ([1]; dose 1 ppm, spray, 6 days) | pest or weed control at 10 ppm ([1]; dose 10 ppm, spray, 6 days) | pest or weed control at 25 ppm ([1]; dose 25 ppm, spray, 6 days) | pest or weed control at 0.1 ppm (Plutella xylostella; dose 0.1 ppm, spray, 6 days) | pest or weed control at 1 ppm (Plutella xylostella; dose 1 ppm, spray, 6 days) | pest or weed control at 10 ppm (Plutella xylostella; dose 10 ppm, spray, 6 days) | pest or weed control at 0.1 ppm (Pieris rapae; dose 0.1 ppm, spray, 6 days) | pest or weed control at 1 ppm (Pieris rapae; dose 1 ppm, spray, 6 days) | pest or weed control at 10 ppm (Pieris rapae; dose 10 ppm, spray, 6 days) | pest or weed control at 0.1 ppm (Mythimna separata; dose 0.1 ppm, spray, 6 days) | pest or weed control at 1 ppm (Mythimna separata; dose 1 ppm, spray, 6 days) | pest or weed control at 10 ppm (Mythimna separata; dose 10 ppm, spray, 6 days) | pest or weed control at 0.1 ppm (Spodoptera litura; dose 0.1 ppm, spray, 6 days) | pest or weed control at 1 ppm (Spodoptera litura; dose 1 ppm, spray, 6 days) | pest or weed control at 10 ppm (Spodoptera litura; dose 10 ppm, spray, 6 days) | pest or weed control at 0.1 ppm (Chilo suppressalis; dose 0.1 ppm, spray, 6 days) | pest or weed control at 1 ppm (Chilo suppressalis; dose 1 ppm, spray, 6 days) | pest or weed control at 10 ppm (Chilo suppressalis; dose 10 ppm, spray, 6 days) | pest or weed control at 0.1 ppm (Cnaphalocrocis medinalis; dose 0.1 ppm, spray, 6 days) | pest or weed control at 1 ppm (Cnaphalocrocis medinalis; dose 1 ppm, spray, 6 days) | pest or weed control at 10 ppm (Cnaphalocrocis medinalis; dose 10 ppm, spray, 6 days) | pest or weed control at 1 ppm (Tetranychus cinnabarinus; dose 1 ppm, immersion 5 seconds, checked after 24 hours) | pest or weed control at 10 ppm (Tetranychus cinnabarinus; dose 10 ppm, immersion 5 seconds, checked after 24 hours) | pest or weed control at 25 ppm (Tetranychus cinnabarinus; dose 25 ppm, immersion 5 seconds, checked after 24 hours)
